Counter-ions that a name gives are not always drawn.
Assays:
[1] = biological target: stromelysin (HSLN) (Homo sapiens, UniProt P08254); test: MCA fluorogenic enzyme assay, competitive inhibition analysis (Ki,app), stromelysin; assay type: biochemical; conditions: Ki,app; MCA peptide substrate, 37° C., pH 7.5; read-out: Enzyme Inhibition Constants (K1) HSLN
[2] = biological target: T1, matrilysin (Matr.) (Homo sapiens, UniProt P09237); test: MCA fluorogenic enzyme assay, competitive inhibition analysis (Ki,app), matrilysin; assay type: biochemical; conditions: MCA peptide substrate, 37° C., pH 7.5, read-out: Enzyme Inhibition Constants (K1) Matr.
T1 sequence (P09237 95-267): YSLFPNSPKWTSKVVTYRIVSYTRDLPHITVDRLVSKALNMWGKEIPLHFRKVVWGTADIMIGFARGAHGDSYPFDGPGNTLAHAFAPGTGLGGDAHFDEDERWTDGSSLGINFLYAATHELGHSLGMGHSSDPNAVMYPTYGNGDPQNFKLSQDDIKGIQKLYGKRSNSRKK
Protocol: Stromelysin enzymatic activity was measured using a modified version of a resonance energy transfer fluorogenic assay as described in FEBS, vol. 296(3), p. 263 (1992), the disclosure of which is incorporated herein by reference. The MCA-peptide substrate is shown below. The fluorescent MCA group is quenched by resonance energy transfer to the 2,4-dinitrophenyl group. Matrix metalloproteinases cleave this substrate at the Gly-Leu bond. Cleavage results in the loss of energy transfer and a large increase in fluorescence of the MCA group. [drawing 56] 7-methoxycoumarin-4-yl-acetyl-pro-leu-gly-leu-3-(2,4-dinitrophenyl)-L-2,3-diaminoproprionyl-ala-arg-NH2
The MCA assay was performed at 37° C. in buffer containing 50 mM Tricine (pH 7.5), 10 mM CaCl2, 200 mM NaCl, and 1% DMSO with the following concentrations of matrix metalloproteinases: 1.4 nM stromelyin, 0.063 nM matrilysin, and 0.030 nM gelatinase A. The concentration of MCA substrate was 10 or 20 μM in a final volume of 1.6 mL. Fluorescence data was collected with Perkin-Elmer LS-5B and LS-5B spectrofluorimeters with λexcitation=328 nm and λemission=393 nm. Spectrofluorimeters were interfaced with IBM-compatible microcomputer systems.
The Km for the MCA peptide substrate with the matrix metalloproteinases is quite high and exceeds its solubility under assay conditions. Consequently, the apparent Ki (Ki,app) was determined to describe the strength of inhibition. However, in this case, Ki,app would be essentially equal to Ki since [S]<<Km. For the determination of Ki,app, the concentration of the inhibitor was varied at a constant and low concentration of substrate and the steady-state rates of fluorescence change determined. In most cases absorptive quench due to the presence of ligand was not observed. For slow-binding inhibitors, onset of inhibition curves were collected for at least 45 minutes so that equilibrium was established. Steady-state rates of fluorescence change were obtained by fitting a curve to an equation for a single exponential decay containing a linear phase. The fitted value of the linear phase was taken as the steady-state rate. The steady-state rates were fitted to the Michaelis equation describing competitive inhibition by non-linear methods. Data resulting from tight-binding inhibition was analyzed, and Ki,app determined by fitting the data to the tight-binding equation of Morrison See (Biochem. Biophys. Acta, vol. 185, pp. 269-286 (1969)) by non-linear methods.

[3] = biological target: T2, HFC (Homo sapiens, UniProt P03956); test: MCA fluorogenic enzyme assay, competitive inhibition analysis (Ki,app), HFC; assay type: biochemical; conditions: MCA peptide substrate, 37° C., pH 7.5, read-out: Enzyme Inhibition Constants (K1) HFC
T2 sequence (P03956 100-469): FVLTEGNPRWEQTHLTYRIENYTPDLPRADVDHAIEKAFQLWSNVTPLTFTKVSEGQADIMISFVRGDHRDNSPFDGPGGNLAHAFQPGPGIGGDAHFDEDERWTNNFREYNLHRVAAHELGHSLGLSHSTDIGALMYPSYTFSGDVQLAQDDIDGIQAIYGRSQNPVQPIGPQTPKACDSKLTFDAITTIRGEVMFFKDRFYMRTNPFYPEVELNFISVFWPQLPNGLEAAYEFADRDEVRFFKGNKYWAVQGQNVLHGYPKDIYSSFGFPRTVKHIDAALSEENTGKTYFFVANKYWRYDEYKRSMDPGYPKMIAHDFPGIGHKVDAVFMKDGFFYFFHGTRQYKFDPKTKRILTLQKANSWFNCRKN

[4] = biological target: T3, gelatinase A (HG72kD) (Homo sapiens, UniProt P08253); test: MCA fluorogenic enzyme assay, competitive inhibition analysis (Ki,app), gelatinase A; assay type: biochemical; conditions: MCA peptide substrate, 37° C., pH 7.5, read-out: Enzyme Inhibition Constants (K1) HG72kD
T3 sequence (P08253 110-660): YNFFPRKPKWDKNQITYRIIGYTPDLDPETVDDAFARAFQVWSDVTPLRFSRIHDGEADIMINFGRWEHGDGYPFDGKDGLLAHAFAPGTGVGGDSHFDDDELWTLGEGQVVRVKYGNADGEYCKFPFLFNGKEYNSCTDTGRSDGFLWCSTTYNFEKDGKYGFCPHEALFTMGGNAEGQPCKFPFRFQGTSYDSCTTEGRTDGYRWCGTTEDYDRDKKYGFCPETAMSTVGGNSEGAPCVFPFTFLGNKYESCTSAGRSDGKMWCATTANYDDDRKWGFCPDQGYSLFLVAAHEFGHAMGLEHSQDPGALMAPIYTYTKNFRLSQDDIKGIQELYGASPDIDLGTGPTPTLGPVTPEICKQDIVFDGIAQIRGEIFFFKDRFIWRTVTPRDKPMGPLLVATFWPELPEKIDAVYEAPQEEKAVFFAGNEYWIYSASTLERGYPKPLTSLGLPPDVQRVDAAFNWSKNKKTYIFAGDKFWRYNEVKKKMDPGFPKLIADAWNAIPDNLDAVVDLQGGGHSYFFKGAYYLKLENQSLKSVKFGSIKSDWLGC

[5] = biological target: Coll3 (Homo sapiens, UniProt P45452); test: MCA fluorogenic enzyme assay, competitive inhibition analysis (Ki,app), Coll3; assay type: biochemical; conditions: MCA peptide substrate, 37° C., pH 7.5, read-out: Enzyme Inhibition Constants (K1) Coll3
[6] = system: murine Lewis lung carcinoma (NIH) tumor line; test: Tumor model: subcutaneous Lewis lung carcinoma, primary tumor growth and lung metastases; assay type: in vivo, female BDF1 mice; conditions: 50 mg/kg, i.p., daily, Day 1-Day 21; for Tumor Growth Delay: delay in reaching 1000 mm^3 tumor volume between control and treated animals; for % Inhibition-Lung Metastases: metastases counted 22 days after tumor implantation
From the text: Primary subcutaneous tumors were established in female BDF1 mice by trocar inoculation of the murine Lewis lung carcinoma (NIH) tumor line. This tumor line produces spontaneous lung metastases which arise from the primary tumor. Primary tumor growth was monitored by measuring the length and width of the subcutaneous tumor using calipers; lung metastases were counted at the end of the experiment (22 days after tumor implantation) by removing the lungs and counting the lesions using a dissecting microscope. The test compound was administered daily, i.p., beginning 24 hours after tumor implantation (day 1) and continuing through day 21. Primary tumor volumes and number of lung metastases were compared to control animals using an ANOVA followed by a comparison of means using the F statistic. […] All drugs were administered at 50 mg/kg, i.p., daily, Day 1-Day 21.

[7] = system: bovine nasal cartilage plugs; test: Arthritis model: implanted bovine nasal cartilage plugs in sponges impregnated with Mycobacterium tuberculosis; assay type: in vivo, female Lewis rats; conditions: p < 0.01; for weight loss % inhibition: cartilage plug weight; for hydroxyproline % protection: hydroxyproline content of plugs
Protocol: Previously frozen bovine nasal cartilage plugs weighing approximately 20 mg were embedded in polyvinyl sponges impregnated with Mycobacterium tuberculosis and implanted subcutaneously in female Lewis rats. Dosing was begun 9 days after implantation and the plugs were harvested about one week later. The plugs were weighed and then hydrolyzed and the hydroxyproline content measured. Efficaciousness was determined by the comparison of the compound-treated groups with vehicle-treated controls.

stromelysin (HSLN), sequence (P08254 100-477): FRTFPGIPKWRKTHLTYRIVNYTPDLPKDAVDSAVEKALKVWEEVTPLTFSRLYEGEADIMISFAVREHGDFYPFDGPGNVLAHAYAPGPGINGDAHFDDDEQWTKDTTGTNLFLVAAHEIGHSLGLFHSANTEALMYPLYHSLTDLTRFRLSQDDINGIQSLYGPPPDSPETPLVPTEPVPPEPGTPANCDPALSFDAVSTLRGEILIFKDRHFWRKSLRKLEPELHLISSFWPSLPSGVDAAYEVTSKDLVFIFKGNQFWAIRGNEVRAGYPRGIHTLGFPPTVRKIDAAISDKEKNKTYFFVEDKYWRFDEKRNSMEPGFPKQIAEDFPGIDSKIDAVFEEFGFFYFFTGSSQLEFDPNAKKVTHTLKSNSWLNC

Row | Structure (SMILES) | melting point [°C] | Ki [1] [nM] | Ki [2] [nM] | Ki [3] [nM] | Ki [4] [nM] | Ki [5] [nM] | Tumor Growth Delay [6] [days] | % Inhibition-Lung Metastases [6] [%] | weight loss % inhibition ([7]; dose p.o. 10 mg/kg/day) [%] | hydroxyproline % protection ([7]; dose p.o. 10 mg/kg/day) [%] | weight loss % inhibition ([7]; dose p.o. 25 mg/kg/day) [%]
1 | CCOC(=O)CN1CCN(S(=O)(=O)c2ccc(Oc3ccc(Cl)cc3)cc2)[C@@H](C(=O)NO)C1 (as salt: hydrochloride) [Example 11(c), 2(R)-N-hydroxy-1-(4-(4-chlorophenoxy)benzenesulfonyl)-4-(ethoxycarbonylmethyl)-piperazine-2-carboxamide hydrochloride] | 163.7 |  |  |  |  |  |  |  |  |  | 
2 | Cl.O=C(NO)C1CNCCN1S(=O)(=O)c1ccc(Oc2ccc(Br)cc2)cc1 (racemic) [5(a), 2(R/S)-N-hydroxy-1(4-(4-bromophenoxy)benzenesulfonyl)-piperazine-2-carboxamide hydrochloride] |  | 1.8 | 263 | 68 | 0.77 | 1.1 | 2.0 | 13.6 | 59.6 | 72.5 | 
3 | CC(=O)N1CCN(S(=O)(=O)c2ccc(Oc3ccccc3)cc2)C(C(=O)NO)C1 (racemic) [7(a), 2(R/S)-N-hydroxy-1-(4-phenoxybenzenesulfonyl)-4-acetyl-piperazine-2-carboxamide] |  | 0.64 | 113 |  | 0.11 | 0.05 | 0.0 | 16.1 | 77.4 | 86.7 | 
4 | CC(C)(C)OC(=O)N1CCN(S(=O)(=O)c2ccc(Oc3ccc(Br)cc3)cc2)C(C(=O)NO)C1 (racemic) [Example 4, 2(R/S)-N-hydroxy-1-(4-(4-bromophenoxy)benzenesulfonyl)-4-(t-butoxycarbonyl)-piperazine-2-carboxamide] | 112.4 | 0.73 | 378 | 60 | 0.025 | 0.07 |  |  |  |  | 
5 | O=C(NO)C1CNCCN1S(=O)(=O)c1ccc(Oc2ccccc2)cc1 (racemic) [Example 5(b), 2(R/S)-N-hydroxy-1-(4-phenoxybenzenesulfonyl)-piperazine-2-carboxamide] | 160.4 | 6.2 | 560 |  | 0.864 |  |  |  |  |  | 
6 | Cc1ccc(Oc2ccc(S(=O)(=O)Cl)cc2)cc1 [2(b), 4-(4-Methylphenoxy)benzenesulfonyl chloride] | 295 to 300 |  |  |  |  |  |  |  |  |  | 81.1
7 | CC1(C)SCCN(S(=O)(=O)c2ccc(Oc3ccc(-n4ccnc4)cc3)cc2)[C@H]1C(=O)NO [3(a), 3(S)-N-hydroxy-4-(4-(4-(imidazol-1-yl)phenoxy)benzenesulfonyl)-2,2-dimethyl-tetrahydro-2H-1,4-thiazine-3-carboxamide] |  | 0.25 | 5 | 15 | 0.011 | 0.017 |  |  |  |  | 97.5
8 | CC1(C)C(C(=O)NO)N(S(=O)(=O)c2ccc(Oc3ccc(Cl)cc3)cc2)CC[S+]1[O-] [Example 19(b), 1(R), 3(S)-N-hydroxy-4-(4-(4-chlorophenoxy)benzenesulfonyl)-2,2-dimethyl-1-oxo-tetrahydro-2H-1,4-thiazine-3-carboxamide] | 145 to 147 | 2.5 |  |  | 0.018 |  |  |  |  |  | 

Reference: patent US6849732B2, “Metalloproteinase inhibitors, pharmaceutical compositions containing them and their pharmaceutical uses, and methods and intermediates useful for their preparation” (Agouron Pharmaceuticals, Inc., priority 1995, dated 2005)
